Experimental data reported in US20220056015A1, “KIF18A INHIBITORS” (AMGEN INC., priority 2018, published 2022).

target: T1, Recombinant human KIF18A (1-467 His-tagged) protein (Homo sapiens, UniProt Q8NI77); assay: KIF18A Enzyme Assay: microtubule-stimulated ATPase activity assay (ADP-Glo); format: biochemical; conditions: 30 nM KIF18A, 30 μg/mL pig microtubules, ATP at Km 75 μM, room temperature, ADP-Glo luminescence
T1 construct: Recombinant human KIF18A (1-467 His-tagged) protein; His
From the text: KIF18A Enzyme Assay: Microtubule-stimulated ATPase activity assay is used to measure KIF18A enzyme activity after treatment with compound. Compounds were 2-fold serially diluted in DMSO (Sigma Inc) over 22-point concentration range. Recombinant human KIF18A (1-467 His-tagged) protein was expressed using a baculovirus system and purified by affinity chromatography by Amgen Inc. Concentrations of KIF18A protein, microtubules (MT), and ATP in the reaction were optimized for standardized homogenous enzyme assay using ADP-Glorm Kinase/ATPase Assay Kit (Promega Inc). The assay measures ADP formed from the ATPase reaction. […] Read luminescence using EnVision microplate reader with ultra-luminescence module (Perkin Elmer Inc). Concentration-response curve-fitting and ICn determination was performed using Genedata Screener Software (Standard 15.0.1, Genedata Inc) with a four-parameter logistic regression fit model.

T1 sequence (Q8NI77 1-467): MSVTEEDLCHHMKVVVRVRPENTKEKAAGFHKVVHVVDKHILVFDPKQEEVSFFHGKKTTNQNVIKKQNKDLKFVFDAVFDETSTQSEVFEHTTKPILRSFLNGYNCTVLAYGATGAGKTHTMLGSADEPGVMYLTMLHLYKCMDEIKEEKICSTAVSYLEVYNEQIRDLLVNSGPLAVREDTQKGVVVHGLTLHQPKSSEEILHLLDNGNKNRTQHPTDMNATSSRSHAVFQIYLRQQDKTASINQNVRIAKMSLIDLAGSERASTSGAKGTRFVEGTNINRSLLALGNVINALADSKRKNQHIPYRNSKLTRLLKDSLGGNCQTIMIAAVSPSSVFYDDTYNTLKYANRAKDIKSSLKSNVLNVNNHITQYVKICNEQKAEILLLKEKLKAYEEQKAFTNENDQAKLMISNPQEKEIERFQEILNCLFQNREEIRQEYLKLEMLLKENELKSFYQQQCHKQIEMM
T1 sequence (P02550 whole entry partner): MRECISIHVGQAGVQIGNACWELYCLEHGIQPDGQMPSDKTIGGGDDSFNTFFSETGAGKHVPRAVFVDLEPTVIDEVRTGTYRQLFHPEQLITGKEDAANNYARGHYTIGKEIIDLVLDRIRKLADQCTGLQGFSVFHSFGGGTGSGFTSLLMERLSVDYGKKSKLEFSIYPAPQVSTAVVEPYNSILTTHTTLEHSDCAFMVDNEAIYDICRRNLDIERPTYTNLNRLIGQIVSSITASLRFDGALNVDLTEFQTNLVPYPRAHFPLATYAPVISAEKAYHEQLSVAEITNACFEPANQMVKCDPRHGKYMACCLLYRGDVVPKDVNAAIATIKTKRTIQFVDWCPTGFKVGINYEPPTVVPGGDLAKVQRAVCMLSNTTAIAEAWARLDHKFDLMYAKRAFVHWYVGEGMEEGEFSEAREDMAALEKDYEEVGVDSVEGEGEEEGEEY
T1 sequence (P02554 whole entry partner): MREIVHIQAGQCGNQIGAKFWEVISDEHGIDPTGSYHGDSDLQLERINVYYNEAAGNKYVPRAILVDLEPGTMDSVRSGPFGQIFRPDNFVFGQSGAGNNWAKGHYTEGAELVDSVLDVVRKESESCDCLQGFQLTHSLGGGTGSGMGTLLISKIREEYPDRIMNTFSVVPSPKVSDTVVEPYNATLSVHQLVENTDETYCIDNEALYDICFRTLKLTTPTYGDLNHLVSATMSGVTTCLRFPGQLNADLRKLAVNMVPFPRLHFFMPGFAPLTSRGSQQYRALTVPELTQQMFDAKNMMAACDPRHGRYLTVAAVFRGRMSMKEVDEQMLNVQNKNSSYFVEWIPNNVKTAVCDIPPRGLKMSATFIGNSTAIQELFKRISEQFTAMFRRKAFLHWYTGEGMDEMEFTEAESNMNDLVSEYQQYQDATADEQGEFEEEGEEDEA

| Compound | IC50 [nM] |
| --- | --- |
| Cc1cc(NC(=O)c2ccc(NS(=O)(=O)CCO)nc2N2CCC3(CC2)CC3)nc(N2CCC(F)(F)CC2)n1 [Example 1, N-(2-(4,4-difluoropiperidin-1-yl)-6-methylpyrimidin-4-yl)-6-((2-hydroxyethyl)sulfonamido)-2-(6-azaspiro[2.5]octan-6-yl)nicotinamide] | 31 |
| Cc1cc(NC(=O)c2ccc(NC3COC3)nc2N2CCC3(CC2)CC3)nc(N2CCO[C@H](C)C2)n1 [Example 2, (R)—N-(6-methyl-2-(2-methylmorpholino)pyrimidin-4-yl)-6-(oxetan-3-ylamino)-2-(6-azaspiro[2.5]octan-6-yl)nicotinamide] | 916 |
| Cc1cc(NC(=O)c2ccc(NC3(C)COC3)nc2N2CCC3(CC2)CC3)nc(N2CCO[C@H](C)C2)n1 [Example 2-1, (R)-N-(6-Methyl-2-(2-methylmorpholino)pyrimidin-4-yl)-6-((3-methyloxetan-3-yl)amino)-2-(6-azaspiro[2.5]octan-6-yl)nicotinamide] | 355 |
| Cc1cc(NC(=O)c2ccc(NC3(CO)COC3)nc2N2CCC3(CC2)CC3)nc(N2CCC(F)(F)CC2)n1 [Example 2-4, N-(2-(4,4-Difluoropiperidin-1-yl)-6-methylpyrimidin-4-yl)-6-((3-(hydroxymethyl)oxetan-3-yl)amino)-2-(6-azaspiro[2.5]octan-6-yl)nicotinamide] | 173 |
| Cc1cc(NC(=O)c2ccc(NC(C)(C)CO)nc2N2CCC3(CC2)CC3)nc(N2CCO[C@H](C)C2)n1 [Example 2-5, (R)-6-((1-Hydroxy-2-methylpropan-2-yl)amino)-N-(6-methyl-2-(2-methylmorpholino)pyrimidin-4-yl)-2-(6-azaspiro[2.5]octan-6-yl)nicotinamide] | 230 |
| Cc1cc(NC(=O)c2ncc(NC(C)(C)CO)cc2N2CCC3(CC2)CC3)nc(N2CCC(F)(F)CC2)n1 [Example 2-6, N-(2-(4,4-Difluoropiperidin-1-yl)-6-methylpyrimidin-4-yl)-5-((1-hydroxy-2-methylpropan-2-yl)amino)-3-(6-azaspiro[2.5]octan-6-yl)picolinamide] | 122 |
| Cc1cc(NC(=O)c2ncc(NC(C)(C)CO)nc2N2CCC3(CC2)CC3)nc(N2CCC(F)(F)CC2)n1 [Example 2-8, N-(2-(4,4-Difluoropiperidin-1-yl)-6-methylpyrimidin-4-yl)-5-((1-hydroxy-2-methylpropan-2-yl)amino)-3-(6-azaspiro[2.5]octan-6-yl)pyrazine-2-carboxamide] | 88 |
| Cc1cc(NC(=O)c2ncc(NS(=O)(=O)CCO)cc2N2CCC3(CC2)CC3)nc(N2CCC(F)(F)CC2)n1 [Example 6, N-(2-(4,4-Difluoropiperidin-1-yl)-6-methylpyrimidin-4-yl)-5-((2-hydroxyethyl)sulfonamido)-3-(6-azaspiro[2.5]octan-6-yl)picolinamide] | 15 |
| Cc1cc(NC(=O)c2cnc(NS(=O)(=O)CCO)cc2N2CCC3(CC2)CC3)nc(N2CCC(F)(F)CC2)n1 [Example 7, N-(2-(4,4-Difluoropiperidin-1-yl)-6-methylpyrimidin-4-yl)-6-((2-hydroxyethyl)sulfonamido)-4-(6-azaspiro[2.5]octan-6-yl)nicotinamide] | 13 |
| Cc1cc(NC(=O)c2cnc(NS(=O)(=O)CCO)nc2N2CCC3(CC2)CC3)nc(N2CCC(F)(F)CC2)n1 [Example 7-1, N-(2-(4,4-difluoropiperidin-1-yl)-6-methylpyrimidin-4-yl)-2-((2-hydroxyethyl)sulfonamido)-4-(6-azaspiro[2.5]octan-6-yl)pyrimidine-5-carboxamide] | 272 |
| Cc1cc(NC(=O)c2ncc(S(=O)(=O)C3CC3)cc2N2CCC3(CC2)CC3)nc(N2CCC(F)(F)CC2)n1 [Example 8, 5-(Cyclopropylsulfonyl)-N-(2-(4,4-difluoropiperidin-1-yl)-6-methylpyrimidin-4-yl)-3-(6-azaspiro[2.5]octan-6-yl)picolinamide] | 91 |
| Cc1cc(NC(=O)c2cc(NCCO)ncc2N2CCC3(CC2)CC3)nc(N2CCC(F)(F)CC2)n1 [Example 9, N-(2-(4,4-Difluoropiperidin-1-yl)-6-methylpyrimidin-4-yl)-2-((2-hydroxyethyl)amino)-5-(6-azaspiro[2.5]octan-6-yl)isonicotinamide] | 394 |
| Cc1cc(NC(=O)c2ncc(NS(=O)(=O)CCO)nc2N2CCC3(CC2)CC3)nc(N2CCC(F)(F)CC2)n1 [Example 10, N-(2-(4,4-Difluoropiperidin-1-yl)-6-methylpyrimidin-4-yl)-5-((2-hydroxyethyl)sulfonamido)-3-(6-azaspiro[2.5]octan-6-yl)pyrazine-2-carboxamide] | 80 |

Further lines, results first:

| IC50 [nM] | Compound |
| --- | --- |
| 264 | Cc1cc(NC(=O)c2cnc(S(=N)(=O)C3CC3)cc2N2CCC3(CC2)CC3)nc(N2CCC(F)(F)CC2)n1 (single isomer, unassigned) [Example 4-1, 4-(6-Azaspiro[2.5]octan-6-yl)-6-(S-cyclopropylsulfonimidoyl)-N-(2-(4,4-difluoro-1-piperidinyl)-6-methyl-4-pyrimidinyl)-3-pyridinecarboxamide] |
| 206 | Cc1cc(NC(=O)c2cnc([S@@](=N)(=O)C3CC3)cc2N2CCC3(CC2)CC3)nc(N2CCC(F)(F)CC2)n1 (single isomer, unassigned) [Example 4-2, 4-(6-Azaspiro[2.5]octan-6-yl)-6-(R-cyclopropylsulfonimidoyl)-N-(2-(4,4-difluoro-1-piperidinyl)-6-methyl-4-pyrimidinyl)-3-pyridinecarboxamide] |
| 71 | Cc1cc(NC(=O)c2ncc(S(=N)(=O)C3CC3)cc2N2CCC3(CC2)CC3)nc(N2CCC(F)(F)CC2)n1 (single isomer, unassigned) [Example 5-2, 3-(6-Azaspiro[2.5]octan-6-yl)-5-(S-cyclopropylsulfonimidoyl)-N-(2-(4,4-difluoro-1-piperidinyl)-6-methyl-4-pyrimidinyl)-2-pyridinecarboxamide] |
| 402 | Cc1cc(NC(=O)c2ccc(NS(=O)(=O)CCO)nc2N2CCC3(CC2)CC3)nc(N2CCO[C@H](C)C2)n1 [Example 1-1, (R)-6-((2-Hydroxyethyl)sulfonamido)-N-(6-methyl-2-(2-methylmorpholino)pyrimidin-4-yl)-2-(6-azaspiro[2.5]octan-6-yl)nicotinamide] |
| 218 | Cc1cc(NC(=O)c2ccc(NC3(CO)COC3)nc2N2CCC3(CC2)CC3)nc(N2CCO[C@H](C)C2)n1 [Example 2-2, (R)-6-((3-(Hydroxymethyl)oxetan-3-yl)amino)-N-(6-methyl-2-(2-methylmorpholino)pyrimidin-4-yl)-2-(6-azaspiro[2.5]octan-6-yl)nicotinamide] |
| 453 | Cc1cc(NC(=O)c2ccc(NC3(C)COC3)nc2N2CCC3(CC2)CC3)nc(N2CCC(F)(F)CC2)n1 [Example 2-3, N-(2-(4,4-Difluoropiperidin-1-yl)-6-methylpyrimidin-4-yl)-6-((3-methyloxetan-3-yl)amino)-2-(6-azaspiro[2.5]octan-6-yl)nicotinamide] |
| 55 | Cc1cc(NC(=O)c2cnc(NC(C)(C)CO)nc2N2CCC3(CC2)CC3)nc(N2CCC(F)(F)CC2)n1 [Example 2-7, N-(2-(4,4-Difluoropiperidin-1-yl)-6-methylpyrimidin-4-yl)-2-((1-hydroxy-2-methylpropan-2-yl)amino)-4-(6-azaspiro[2.5]octan-6-yl)pyrimidine-5-carboxamide] |
| 105 | Cc1cc(NC(=O)c2ncc([S@](=N)(=O)C3CC3)cc2N2CCC3(CC2)CC3)nc(N2CCC(F)(F)CC2)n1 [Example 5-1, 3-(6-Azaspiro[2.5]octan-6-yl)-5-(R-cyclopropylsulfonimidoyl)-N-(2-(4,4-difluoro-1-piperidinyl)-6-methyl-4-pyrimidinyl)-2-pyridinecarboxamide] |
| 27 | O=C(Nc1ccc(NS(=O)(=O)CCO)cc1N1CCC2(CC1)CC2)c1ccnc(N2CCC(F)(F)CC2)c1 [Example 11, 2-(4,4-Difluoropiperidin-1-yl)-N-(4-((2-hydroxyethyl)sulfonamido)-2-(6-azaspiro[2.5]octan-6-yl)phenyl)isonicotinamide] |
